Results published in patent US20070122843A1, “Isoflavonoid analogs and their metal complexes as anti-cancer agents” (priority 2005, published 2007).
Where two headings read alike, the source gives them in different places. Values belong to the compound of their own block, whether it stands above or below them.

Legend:
COLO357 = assay: MTT cell viability / proliferation assay, COLO357; format: cell-based
Experimental: (§1) More specifically, the tumor cell lines MCF-7, MDA-MB 231 and COLO 357 were maintained in Dulbecco's modifed Eagle's medium (DMEM) with phenol red. […] The cell lines were cultured in a humidified incubator in an atmosphere of 5% CO2 and were maintained in continuous exponential growth by twice a week passage. Adherent cells at a logarithmic phase were detached by addition of 2-3 ml of trypsin (Gibco), 0.02% EDTA mixture and incubation at 37° C. […] Cells were incubated for 24 h at 37° C. to resume exponential growth. The test compounds were dissolved in DMSO (final concentration 0.1%) and added to the cells 24 h after seeding at varying concentrations. Control wells containing the culture medium, were included in each experiment. Cell proliferation was evaluated after 72 h by means of MTT assay. The biological effects of these compounds were studied against the hormone independent breast (BT20) and prostate (PC3) cancers as well as K-ras positive (Colo357) and K-ras negative (B×PC3) pancreatic cancer cell lines.

[1] = system: breast cancer cell line (T47D); assay: Propidium iodide / Hoechst 33342 staining, apoptosis and cell viability; format: cell-based
Experimental: To provide further evidence of apoptosis, we carried out phase contrast microscopy using a mixture of propidium iodide (PI) and Hoechst dye 33342 to determine the integrity of cell membranes of cancer cells. The quantification of the apoptosis was carried out by cell count after staining with PI followed by visualization of treated cells by fluorescence analysis. […] After 5 minutes at 37° C. the cells were placed under a fluorescence microscope (Nikon Optiphot) with a filter block giving excitation at 380 nm and 480 nm.

COLO 357 cells = assay: Orthotopic pancreatic tumor model using COLO 357 cells; format: in vivo
Experimental: The redox sensitive transcription factor NF-kB, is downstream of the Akt kinase protein and plays major role in the cell proliferation and metastasis and resistance in major cancers such as breast, prostate and pancreatic. […] Nuclear proteins were extracted from the tumor tissue as described previously (see, for example, Banerjee, et al, Cancer Research, Vo. 65, p. 9064 (2005)) and kept at −70° C. until use. Protein concentration was determined using the bicinchonic acid assay kit with BSA as the standard (Pierce Chemical Co., Rockford, Ill.). The incubation mixture included 25 mM DTT and 2.5% Tween 20 in a binding buffer. The DNA-protein complex formed was separated from free oligonucleotide on 8.0% native polyacralyamide gel using buffer containing 50 mM Tris, 200 mm glycine, pH 8.5, and 1 mM EDTA, and then visualized by Odyssey Infrared Imaging System using Odyssey Software Release 1.1.
Since the NF-κB pathway is regulated by Akt protein, the effects of the FPA-124 on NF-κB activity was studied in an in vivo experiment, specifically the well-established orthotopic pancreatic tumor model using COLO 357 cells.

BxPC3 = assay: MTT cell viability / proliferation assay, BxPC3; format: cell-based
Experimental: as §1

MDA-MB 231 = assay: MTT cell viability assay, MDA-MB 231; format: cell-based
Experimental: (§2) The compounds were tested in multiple panels of breast (MCF-7, T47D, BT20 and MDA-MB231), prostate (PC3), and pancreatic (BxPC3, COLO357) cancer cell lines, using the dye 3-[4,5 dimethylthiazol-2-yl]-2,5 diphenyltetrazolium bromide (MTT assay) according to a method described in Banerjee, et al., Cancer Research. 2002 62, 4945.
(§3) More specifically, the tumor cell lines MCF-7, MDA-MB 231 and COLO 357 were maintained in Dulbecco's modifed Eagle's medium (DMEM) with phenol red. Cell lines T47D, BT20, PC3 and BxPC3 were routinely cultured in RPMI medium, each medium being supplemented with Penicillin (50U/ml), Streptomycin (50 μg/ml) and 10% fetal calf serum (FCS) (Gibco, Myclone). The cell lines were cultured in a humidified incubator in an atmosphere of 5% CO2 and were maintained in continuous exponential growth by twice a week passage.
(§4) Adherent cells at a logarithmic phase were detached by addition of 2-3 ml of trypsin (Gibco), 0.02% EDTA mixture and incubation at 37° C. Cells were plated (100 μL per well) in 48 well flat bottom microtiter plates at densities of 2000 to 5000 per cm^2 (MCF-7, MDA-MB321, T47D, BT20, PC3, B×PC3, COLO357) cells per well. Cells were incubated for 24 h at 37° C. to resume exponential growth. The test compounds were dissolved in DMSO (final concentration 0.1%) and added to the cells 24 h after seeding at varying concentrations. Control wells containing the culture medium, were included in each experiment. Cell proliferation was evaluated after 72 h by means of MTT assay.

[2] = system: vascular endothelial growth factor (VEGF); assay: VEGF ELISA in BxPC3 cells; format: cell-based, human; details: 10 μM, 20 μM, 72 h
Experimental: B×PC3 cells (0.1×10^6/well) were plated into 6-well plates and incubated in supplemented RPMI containing 10% FBS.

PC3 cells = assay: Western blot of Akt, p-Akt and PARP in PC3 cells; format: cell-based, human; details: 10 and 20 μM, 72 h
Experimental: Control cells were incubated in the medium with Na2CO3 using same time point. After incubation the cells were lysed with This-HCl (62.5 mm) and 2% SDS. Protein concentration was then measured using […] protein assay (Pierce Chemical Co., Rockford, Ill.). Cell extracts were subjected to 10% SDS-PAGE and electrophoretically transferred to nitrocellulose membrane. Membranes were then incubated with monoclonal anti-Akt (epitome: amino acids 345-480 of Akt1, 1:500; Ontogeny, 26. San Diego, Calif.), anti-phosphor-Akt Ser473 (1:1000; Cell Signaling, Beverly, Mass.), primary monoclonal anti-PARP antibody (1:5000; Biomol, Plymouth Meeting, Pa.) and anti-β-actin (1:5000; Sigma) antibodies, washed with TTBS, and incubated with secondary antibody conjugated with peroxidase. The signal was then detected using the chemiluminescent detection system (Pierce, Rockford, Ill.).

PC3 = assay: MTT cell viability / proliferation assay, PC3; format: cell-based, human
Experimental: as §1

[3] = system: breast, prostate and pancreatic cancer cell lines; assay: MTT assay, statements over several cancer cell lines; format: cell-based
Experimental: as §2, §3, §4
The biological effects of these compounds were studied against the hormone independent breast (BT20) and prostate (PC3) cancers as well as K-ras positive (Colo357) and K-ras negative (B×PC3) pancreatic cancer cell lines.

MCF-7 = assay: MTT cell viability assay, MCF-7; format: cell-based
Experimental: as §2, §3, §4

T47D = assay: MTT cell viability assay, T47D; format: cell-based; details: 72 h
Experimental: as §2, §3
as §4, with “The test compounds were dissolved in DMSO (final concentration 0.1%) and added to the cells 24 h after seeding at varying concentrations. Control wells containing the culture medium, were included in each experiment.” left out

BT20 = assay: MTT cell viability / proliferation assay, BT20; format: cell-based
Experimental: as §1

Akt1/PKBα, active enzyme = target: T1, Akt1/PKBα, active enzyme (Homo sapiens, UniProt P31749); assay: Fluorescence polarization Akt kinase assay; format: biochemical
T1 construct: purchased Upstate Biotechnology 14-276
T1 sequence (P31749 whole entry): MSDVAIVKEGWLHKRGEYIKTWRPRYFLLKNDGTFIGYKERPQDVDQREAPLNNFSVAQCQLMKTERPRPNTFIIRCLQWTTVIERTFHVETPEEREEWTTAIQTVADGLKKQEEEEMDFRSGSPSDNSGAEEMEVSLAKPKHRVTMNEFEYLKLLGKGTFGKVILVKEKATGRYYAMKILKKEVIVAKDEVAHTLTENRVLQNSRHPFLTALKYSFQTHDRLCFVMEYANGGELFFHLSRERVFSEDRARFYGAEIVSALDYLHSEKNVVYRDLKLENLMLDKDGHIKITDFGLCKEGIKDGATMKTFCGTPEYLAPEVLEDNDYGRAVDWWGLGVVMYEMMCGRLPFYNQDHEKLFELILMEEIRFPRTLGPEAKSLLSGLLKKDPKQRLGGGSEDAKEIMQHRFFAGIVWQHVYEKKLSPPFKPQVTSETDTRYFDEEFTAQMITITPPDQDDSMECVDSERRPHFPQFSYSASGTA
Experimental: The serine threonine Akt kinase reaction was carried out in 96 well black plates in a total volume of 100 μl using Ser/Thr kinase polarization based assay kit from Invitrogen Part # P3103. Briefly, the Akt kinase assay reaction was set up in a total volume of 40 μl in the presence of different concentrations of inhibitor. Stock solutions of test compounds were made in DMSO. From DMSO stocks, 4× solutions of test compounds were prepared in 1× assay dilution buffer; 10 μl of this drug solution was used in the assay. […] The plate was incubated at 30° C. for 30 minutes. Enzyme reaction was quenched with 10 μl of 50 mM EDTA for 5 minutes. Anti phosphor serine antibody was added 25 μl/well followed by 10 μl of fluorescent tracer. The total volume was made up to 100 μl by adding 15 μl of fluorescence polarization assay dilution buffer. Appropriate controls and blanks were prepared. The plate was incubated for 1 h at RT and was analyzed for polarization at 435 excitation and 535 emission wavelength on Tecan Ultra microplate reader. Polarization values were normalized to the control and were plotted against log concentration of test compounds using Graph Pad Prism software. Sigmoidal dose response curve analysis was used to calculate the IC50 of test compounds.

[4] = system: Colo357, BxPC3, BT20, and PC3 cells; assay: Cell Death Detection ELISA apoptosis assay; format: cell-based; details: FPA-124, FPA-125, FPA-127 compared
Experimental: To determine whether the metal conjugates induce apoptosis in tumor cells, quantitative evaluation of apoptosis was carried out with a Cell Death Detection ELISA kit (Roche, Palo Alto, Calif.). Apoptosis was detected according to the protocol supplied by the manufacturer.
Since all copper compounds are redox active metal conjugates, we believe that redox triggered oxidative stress may be one of the underlying mechanisms for the observed apoptotic cell death in the present case. […] This observation is also in accordance with the favorable distortion factor calculated for the present copper compounds using EPR spectra, which factor helps stabilize cuprous and cupric species without dissociation of the conjugate.

[5] = 72 h, Table 1, read-out: MTT cell viability assay IC50 COLO357
[6] = FPA-102 25 mg/kg wt, i.v. on alternate days
[7] = 72 h, Table 1, read-out: MTT cell viability assay IC50 BxPC3
[8] = 72 h, Table 1, read-out: MTT cell viability assay IC50 PC3
[9] = 72 h, Table 1, read-out: MTT cell viability assay IC50 BT20

SMILES: CC(=O)C1CCC2C3CCC4=CC(=NNC(N)=S)CCC4(C)C3CCC12C.[Cl][Cu][Cl] (stereo not drawn) [FPA-102]
IC50 (COLO357; [5]): 9 µM
apoptotic cells ([1]; IC50 concentration, 24-48 h treatment): ~95%
non-viable cells ([1]; IC50 concentration, 3 h incubation): 40%
cell death by uptake of propidium iodide ([1]; T47D, 10 μM, 72 hours): cells undergoing cell death by uptake of propidium iodide
body weight of treated mice vs control (toxicity) (COLO 357 cells; [6]): no significant change in the body weight
tumor burden (COLO 357 cells; [6]): decrease tumor burden
NF-κB in tumor tissue (EMSA) (COLO 357 cells; treatment for 10 days, once every alternate day): down-regulation of NF-κB
tumor histology (COLO 357 cells; tumor from treated mice): marked necrosis and apoptosis
viable part of tumor mass, histology (COLO 357 cells; tumor from treated mice): 20%
IC50 (BxPC3; [7]): 12.7 µM
IC50 (MDA-MB 231; 72 h): 11 µM
VEGF levels [2]: decrease in the VEGF levels
PARP degradation, Western blot (PC3 cells): induces poly (ADP-ribose) polymerase degradation
phosphor-Akt, Western blot (PC3 cells): down regulates
IC50 (PC3; [8]): 9 µM
IC50 ([3]; MCF-7, MDA-MB 231, T47D, BT20, PC3, BxPC3, COLO357, read-out: IC50 values, range over the cell lines of Table 1): 5 to 13 µM
IC50 (MCF-7; 72 h): 6 µM
IC50 (T47D): 5 µM
IC50 (BT20; [9]): 13 µM

SMILES: CC(=O)C1CCC2C3CCC4=CC(=NNC(N)=S)CCC4(C)C3CCC12C.[Cl][Ni][Cl] (stereo not drawn) [FPA-103]
IC50 (COLO357; [5]): 20 µM
IC50 (PC3; [8]): > 100 µM
IC50 (MCF-7; 72 h): 7.5 µM
IC50 (BT20; [9]): > 100 µM
concentration inhibiting Akt kinase activity (Akt1/PKBα, active enzyme): higher concentration

SMILES: CC(=O)C1CCC2C3CCC4=CC(=NNC(N)=S)CCC4(C)C3CCC12C.[Cl][Pt][Cl] (stereo not drawn) [FPA-104]
IC50 (COLO357; [5]): 7.3 µM
IC50 (BxPC3; [7]): 5 µM
IC50 (MDA-MB 231; 72 h): 34 µM
IC50 (PC3; [8]): 18 µM
IC50 (MCF-7; 72 h): 22 µM
IC50 (BT20; [9]): 18 µM
concentration inhibiting Akt kinase activity (Akt1/PKBα, active enzyme): higher concentration

SMILES: CC(=O)C1CCC2C3CCC4=CC(=NNC(N)=S)CCC4(C)C3CCC12C (stereo not drawn) [FPA-101, 17-acetyl-10,13-dimethyl-1,2,6,7,8,9,11,12,13,14,15,16,17-tetradecahydrocyclopenta[a]phenantnren-3-thiosemicarbazone]
IC50 (COLO357; Homo sapiens, COLO357, 72 h, Table 1, read-out: MTT cell viability assay IC50 COLO357): 13 µM
IC50 (BxPC3; Homo sapiens, BXPC-3, 72 h, Table 1, read-out: MTT cell viability assay IC50 BxPC3): 5 µM
IC50 (MDA-MB 231; Homo sapiens, MDA-MB-231, 72 h): 25 µM
IC50 (PC3; Homo sapiens, PC-3, 72 h, Table 1, read-out: MTT cell viability assay IC50 PC3): 16 µM
antiproliferative action against the cell lines tested ([3]; cell lines of Table 1): moderate antiproliferative action
IC50 (MCF-7; Homo sapiens, MCF7, 72 h): 20 µM
IC50 (BT20; Homo sapiens, BT-20, 72 h, Table 1, read-out: MTT cell viability assay IC50 BT20): 53 µM
concentration inhibiting Akt kinase activity (Akt1/PKBα, active enzyme): higher concentration

SMILES: NC1=[S+][Cu-2]([Cl])([Cl])[N+](=Cc2coc3ccccc3c2=O)N1 [FPA-124]
IC50 (COLO357; Table 2, read-out: MTT Cell Proliferation Assay IC50 COLO357): 34 µM
NF-κB activity in tumor tissue (EMSA) (COLO 357 cells; FPA-124 study): significantly decreased
body weight of the treated animals (toxicity) (COLO 357 cells; FPA-124 study): no change in the body weight
tumor load (pancreas weight) (COLO 357 cells; FPA-124 study): decrease in the tumor load
IC50 (BxPC3; Table 2, read-out: MTT Cell Proliferation Assay IC50 BxPC3): 55 µM
apoptosis by ELISA, rank among metal conjugates [4]: most active compound
IC50 (PC3; read-out: concentration for 50% cell kill, PC3 cells): 10 µM
IC50 (BT20; read-out: concentration for 50% cell kill, BT20 cells): 7 µM
IC50 (Akt1/PKBα, active enzyme; read-out: Akt kinase activity IC50): 0.1 µM

IC50 (COLO357; Homo sapiens, COLO357, Table 2, read-out: MTT Cell Proliferation Assay IC50 COLO357): 50 µM
IC50 (BxPC3; Homo sapiens, BXPC-3, Table 2, read-out: MTT Cell Proliferation Assay IC50 BxPC3): 30 µM
IC50 (PC3; Homo sapiens, PC-3, Table 2, read-out: MTT Cell Proliferation Assay IC50 PC3): 50 µM
IC50 ([3]; Pancreatic cancer cell, Colo357, BxPC3, BT20, PC3, read-out: IC50 values in these multiple cancer cell lines): > 40 µM
IC50 (BT20; Homo sapiens, BT-20, Table 2, read-out: MTT Cell Proliferation Assay IC50 BT20): 46 to 70 µM
IC50 (Akt1/PKBα, active enzyme; Table 2, read-out: Fluorescence Polarization Akt kinase Assay IC50): > 70 µM
SMILES: O=c1c(-c2ccc(O)cc2)coc2cc(O)cc(O)c12 [Genistein, 4,5,7,-trihydroxyisoflavone, reference compound]
